PubChem BioAssay AID1919007 (Molecular Pharmacology Branch, DTP, NCI, 2023)

Test system: A498 complex spheroids with HUVEC/MSC, growth
Test: Anticancer human tumor A498 cell line growth inhibition [AhR];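 further: seven day exposure starting three days after spheroid seeding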;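 on viability, T/C: luminescence signal used as a surrogate for viable cells; luminescence viability scaled so 100% equals DMSO vehicle wells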
Settings: for IC50: curve of first compound; for viability, T/C: stronger effect = lower value; active means viability on the fitted dose curve at most 10% of control; inactive means the rest
Procedure, shortened: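 Agents were dosed in half-log steps down from roughly clinical Cmax, or from 10 microM where Cmax was unknown, alone and with AhR antagonists. Read-out: percent test/control growth of tumor spheroids containing HUVEC and MSC stromal cells.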

[1] = second compound 0.1 µM, first compound 0.000949 µM
[2] = second compound 0.1 µM, first compound 0.003 µM
[3] = second compound 0.1 µM, first compound 0.00949 µM
[4] = second compound 0.1 µM, first compound 0.03 µM
[5] = second compound 0.1 µM, first compound 0.0949 µM
[6] = second compound 0.1 µM, first compound 0.3 µM
[7] = second compound 0.316 µM, first compound 0.000949 µM
[8] = second compound 0.316 µM, first compound 0.003 µM
[9] = second compound 0.316 µM, first compound 0.00949 µM
[10] = second compound 0.316 µM, first compound 0.03 µM
[11] = second compound 0.316 µM, first compound 0.0949 µM
[12] = second compound 0.316 µM, first compound 0.3 µM
[13] = second compound 1 µM, first compound 0.000949 µM
[14] = second compound 1 µM, first compound 0.003 µM
[15] = second compound 1 µM, first compound 0.00949 µM
[16] = second compound 1 µM, first compound 0.03 µM
[17] = second compound 1 µM, first compound 0.0949 µM
[18] = second compound 1 µM, first compound 0.3 µM
[19] = second compound 3.16 µM, first compound 0.000949 µM
[20] = second compound 3.16 µM, first compound 0.003 µM
[21] = second compound 3.16 µM, first compound 0.00949 µM
[22] = second compound 3.16 µM, first compound 0.03 µM
[23] = second compound 3.16 µM, first compound 0.0949 µM
[24] = second compound 3.16 µM, first compound 0.3 µM
[25] = second compound 10 µM, first compound 0.000949 µM
[26] = second compound 10 µM, first compound 0.003 µM
[27] = second compound 10 µM, first compound 0.00949 µM
[28] = second compound 10 µM, first compound 0.03 µM
[29] = second compound 10 µM, first compound 0.0949 µM
[30] = second compound 10 µM, first compound 0.3 µM
[31] = second compound 0.1 µM, first compound 0.0316 µM
[32] = second compound 0.1 µM, first compound 0.1 µM
[33] = second compound 0.1 µM, first compound 0.316 µM
[34] = second compound 0.1 µM, first compound 1 µM
[35] = second compound 0.1 µM, first compound 3.16 µM
[36] = second compound 0.1 µM, first compound 10 µM
[37] = second compound 0.316 µM, first compound 0.0316 µM
[38] = second compound 0.316 µM, first compound 0.1 µM
[39] = second compound 0.316 µM, first compound 0.316 µM
[40] = second compound 0.316 µM, first compound 1 µM
[41] = second compound 0.316 µM, first compound 3.16 µM
[42] = second compound 0.316 µM, first compound 10 µM
[43] = second compound 1 µM, first compound 0.0316 µM
[44] = second compound 1 µM, first compound 0.1 µM
[45] = second compound 1 µM, first compound 0.316 µM
[46] = second compound 1 µM, first compound 1 µM
[47] = second compound 1 µM, first compound 3.16 µM
[48] = second compound 1 µM, first compound 10 µM
[49] = second compound 3.16 µM, first compound 0.0316 µM
[50] = second compound 3.16 µM, first compound 0.1 µM
[51] = second compound 3.16 µM, first compound 0.316 µM
[52] = second compound 3.16 µM, first compound 1 µM
[53] = second compound 3.16 µM, first compound 3.16 µM
[54] = second compound 3.16 µM, first compound 10 µM
[55] = second compound 10 µM, first compound 0.0316 µM
[56] = second compound 10 µM, first compound 0.1 µM
[57] = second compound 10 µM, first compound 0.316 µM
[58] = second compound 10 µM, first compound 1 µM
[59] = second compound 10 µM, first compound 3.16 µM
[60] = second compound 10 µM, first compound 10 µM

CC(C)CC(NC(=O)C(Cc1ccccc1)NC(=O)c1cnccn1)B(O)O (stereo not given) + Cc1ccccc1N=Nc1ccc(NC(=O)c2ccnn2C)c(C)c1
5.75 nM: IC50 (second compound 0.316 µM)
5.25 nM: IC50 (second compound 0.1 µM)
5.19 nM: IC50 (second compound 1 µM)
active: viability, T/C [4] 2.56% | viability, T/C [5] 1.06% | viability, T/C [6] 0.48% | viability, T/C [10] 3.7% | viability, T/C [11] 3.08% | viability, T/C [12] 1.05% | viability, T/C [16] 3.99% | viability, T/C [17] 2.9% | viability, T/C [18] 0.61% | viability, T/C [22] 4.56% | viability, T/C [23] 3.32% | viability, T/C [24] 0.84% | viability, T/C [27] 8.3% | viability, T/C [28] 4.14% | viability, T/C [29] 1.64% | viability, T/C [30] 1.69%
5.11 nM: IC50 (second compound 10 µM)
inactive: viability, T/C [1] 91.9% | viability, T/C [2] 85.5% | viability, T/C [3] 12.4% | viability, T/C [7] 99.1% | viability, T/C [8] 102% | viability, T/C [9] 11% | viability, T/C [13] 81.7% | viability, T/C [14] 86.3% | viability, T/C [15] 12.4% | viability, T/C [19] 80.9% | viability, T/C [20] 86.7% | viability, T/C [21] 11.8% | viability, T/C [25] 84.8% | viability, T/C [26] 87.2%
5.16 nM: IC50 (second compound 3.16 µM)

CCc1c2c(nc3ccc(O)cc13)-c1cc3c(c(=O)n1C2)COC(=O)[C@]3(O)CC + Cc1ccccc1N=Nc1ccc(NC(=O)c2ccnn2C)c(C)c1
44.2 nM: IC50 (second compound 3.16 µM)
60.4 nM: IC50 (second compound 10 µM)
52.1 nM: IC50 (second compound 1 µM)
57.6 nM: IC50 (second compound 0.1 µM)
inactive: viability, T/C [1] 89.2% | viability, T/C [2] 78.2% | viability, T/C [3] 72.8% | viability, T/C [4] 55.9% | viability, T/C [5] 44.1% | viability, T/C [6] 38.8% | viability, T/C [7] 84.9% | viability, T/C [8] 83.5% | viability, T/C [9] 80.3% | viability, T/C [10] 61.6% | viability, T/C [11] 45.4% | viability, T/C [12] 45% | viability, T/C [13] 83.1% | viability, T/C [14] 85.9% | viability, T/C [15] 78% | viability, T/C [16] 58.2% | viability, T/C [17] 38.8% | viability, T/C [18] 43.6% | viability, T/C [19] 86.9% | viability, T/C [20] 78.7% | viability, T/C [21] 76.2% | viability, T/C [22] 54.5% | viability, T/C [23] 40% | viability, T/C [24] 34.8% | viability, T/C [25] 84.3% | viability, T/C [26] 79.5% | viability, T/C [27] 77.8% | viability, T/C [28] 62.2% | viability, T/C [29] 41.4% | viability, T/C [30] 39.4%
71.1 nM: IC50 (second compound 0.316 µM)

Nc1ccccc1NC(=O)c1ccc(CNC(=O)OCc2cccnc2)cc1 + Cc1ccccc1N=Nc1ccc(NC(=O)c2ccnn2C)c(C)c1
1430 nM: IC50 (second compound 1 µM)
1500 nM: IC50 (second compound 0.1 µM)
inactive: viability, T/C [31] 101% | viability, T/C [32] 91.4% | viability, T/C [33] 82.5% | viability, T/C [34] 64.6% | viability, T/C [35] 26.8% | viability, T/C [37] 123% | viability, T/C [38] 92.6% | viability, T/C [39] 86.5% | viability, T/C [40] 72% | viability, T/C [41] 28.5% | viability, T/C [43] 103% | viability, T/C [44] 96.2% | viability, T/C [45] 82% | viability, T/C [46] 61.5% | viability, T/C [47] 27.3% | viability, T/C [49] 89.3% | viability, T/C [50] 91.6% | viability, T/C [51] 74.4% | viability, T/C [52] 54% | viability, T/C [53] 26.9% | viability, T/C [55] 84% | viability, T/C [56] 80.7% | viability, T/C [57] 67.8% | viability, T/C [58] 53.6% | viability, T/C [59] 29.6%
1670 nM: IC50 (second compound 0.316 µM)
1200 nM: IC50 (second compound 3.16 µM)
1160 nM: IC50 (second compound 10 µM)
active: viability, T/C [36] 1.44% | viability, T/C [42] 1.77% | viability, T/C [48] 1.56% | viability, T/C [54] 1.8% | viability, T/C [60] 1.63%

O=C(c1cc(Cc2n[nH]c(=O)c3ccccc23)ccc1F)N1CCN(C(=O)C2CC2)CC1 + Cc1ccccc1N=Nc1ccc(NC(=O)c2ccnn2C)c(C)c1
inactive: viability, T/C [31] 90.1% | viability, T/C [32] 95.2% | viability, T/C [33] 90.2% | viability, T/C [34] 91.9% | viability, T/C [35] 92.6% | viability, T/C [36] 83.5% | viability, T/C [37] 96.3% | viability, T/C [38] 95.9% | viability, T/C [39] 95.2% | viability, T/C [40] 95.1% | viability, T/C [41] 88.9% | viability, T/C [42] 90.4% | viability, T/C [43] 84.6% | viability, T/C [44] 95.7% | viability, T/C [45] 91.5% | viability, T/C [46] 81% | viability, T/C [47] 85.7% | viability, T/C [48] 75.9% | viability, T/C [49] 79.5% | viability, T/C [50] 92.7% | viability, T/C [51] 87.6% | viability, T/C [52] 85.5% | viability, T/C [53] 76.6% | viability, T/C [54] 75.8% | viability, T/C [55] 87.3% | viability, T/C [56] 83.4% | viability, T/C [57] 80.3% | viability, T/C [58] 86.5% | viability, T/C [59] 75.9% | viability, T/C [60] 70.6%
> 10000 nM: IC50 (second compound 0.1 µM) | IC50 (second compound 0.316 µM) | IC50 (second compound 1 µM) | IC50 (second compound 3.16 µM) | IC50 (second compound 10 µM)
